# Experimental data taken from patent US11401278B2, “Macrocyclic indole derivatives” (The Broad Institute, Inc., priority 2017, dated 2022).
# Structures can show the parent of a compound that is named as a salt. Where two headings read alike, the source gives them in different places.
# Columns and labels:
# MCL-1 = MCL-1 (Homo sapiens (Human), UniProt Q07820, K194A/K197A/R201A); test: Protein-protein interaction assay MCL-1/Noxa BH3 peptide (MCL-1 assay, TR-FRET); type: binding; settings: MBP-MCL-1 / Noxa BH3 peptide, median
# Chain of MCL-1 (Q07820 whole entry K194A/K197A/R201A, looked up, the tested form may be a part): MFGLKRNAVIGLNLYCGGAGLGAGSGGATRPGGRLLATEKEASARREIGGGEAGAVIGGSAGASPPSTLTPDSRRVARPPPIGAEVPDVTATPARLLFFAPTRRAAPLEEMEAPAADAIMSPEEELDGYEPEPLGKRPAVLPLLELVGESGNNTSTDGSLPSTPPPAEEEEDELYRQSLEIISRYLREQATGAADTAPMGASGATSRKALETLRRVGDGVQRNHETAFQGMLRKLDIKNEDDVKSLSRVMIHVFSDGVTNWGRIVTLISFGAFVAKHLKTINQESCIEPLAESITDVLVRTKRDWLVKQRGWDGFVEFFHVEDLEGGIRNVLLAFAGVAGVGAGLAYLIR
# How it was run: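 MBP-fused MCL-1 (aa 173-329, 1 nM) was pre-incubated with compound for 10 min at 22° C, then biotinylated Noxa BH3 peptide (1 nM) was added with anti-MBP-Eu cryptate and streptavidin-XL665. Incubation was 1 h at 22° C, then overnight at 4° C, in Tris pH 7 buffer. The 665/620 nm ratio over 11 concentrations (0.1 nM-20 μM) gave IC50 by 4-parameter fit.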
# SUDHL10 [1] = test: Induction of caspase-3/7 activity (Assay 4), SUDHL10; type: cell-based; settings: caspase-3/7 induction, median
# How it was run: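 Caspase-3/7 activity measured by Caspase-Glo 3/7 luminescence in DLBCL cells after 3 h compound treatment at 37 °C. Medium-only background subtracted. EC50 fitted with C0 fixed at 1 and top set to the reference compound's plateau/max induction.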
# SUDHL10 [2] = test: Induction of cytotoxicity (Assay 6), SUDHL10; settings: read-out: Cytotox SUDHL10 [M] (median) IC50, CellTiter-Glo, 5 hours, SUDHL10
# SUDHL5 = test: Induction of cytotoxicity (Assay 6), SUDHL5; settings: read-out: Cytotox SUDHL5 [M] (median) IC50, CellTiter-Glo, 5 hours, SUDHL5
# Protocol: Assay 6 Induction of Cytotoxicity Upon Treatment of Cells with Selected Compounds
# Therefore, cytotoxicity assays were run in parallel in SUDHL5 and SUDHL10 cells.
# The different cell lines were plated in culture medium (RPMI 1640 [GIBCO #22400-089] supplemented with 10% Fetal Bovine Serum) at a density of 3,300 cells in 30 μl/well in a sterile, solid black, flat bottom, polystyrene, TC-treated 384-well microplate (Corning #3571) using Multidrop Combi Reagent Dispenser. As a control, medium without cells was also added to the plate. Cells were incubated in a humidified incubator at 37° C. overnight. On the next day, the cells were treated with compounds (stock solution, 10 mM in DMSO) using the HP D300 Digital Dispenser in a concentration range of 3.3×10e-5 M (33 μM) to 5×10e-9 M (5 nM) in a single-dot curve with at least 16 dilutions and a DMSO concentration of 0.33%. Rim wells were excluded. The cells were incubated for 5 hours in a humidified incubator at 37° C. After this incubation, 30 μl of CellTiter-Glo® Luminescent Cell Viability reagent (Promega, G7573) was added to each well using the Multidrop Combi Reagent Dispenser, followed by 15 minutes incubation on a shaker at room temperature. Finally, luminescence was read at 0.1 ms, with a gain of 3000 using the PHERAstar FS microplate reader (BMG Labtech).
Structure (SMILES),IC50 (MCL-1) [nM],EC50 (SUDHL10 [1]; 3 hours) [nM],"EC50 (SUDHL10 [1]; Homo sapiens, SU-DHL10, 3 h) [nM]",IC50 (SUDHL10 [2]) [M],IC50 (SUDHL5) [M],"IC50 (SUDHL10 [2]; Homo sapiens, SU-DHL10, 5 h) [M]","IC50 (SUDHL5; Homo sapiens, SU-DHL-5, 5 h) [M]"
"CCc1c2c(nn1C)C(CCC1CCOCC1)N(C)S(=O)(=O)CCCn1c(C(=O)O)c(CCCOc3cccc4cc(F)ccc34)c3ccc(Cl)c-2c31 (single isomer, unassigned; enantiomer 4) [Example 64, (−)-4-chloro-3-ethyl-7-{3-[(6-fluoronaphthalen-1-yl)oxy]propyl}-2,14-dimethyl-15-[2-(oxan-4-yl)ethyl]-13,13-dioxo-10,11,12,13,14,15-hexahydro-2H-13lambda^6-pyrazolo[3′,4′:4,5][1,2,8]thiadiazacycloundecino[6,7,8-hi]indole-8-carboxylic acid (Enantiomer 4)]",21,1600,,2.9e-06,1.2e-06,,
"Cc1c2c(nn1C)C(CCN1CCOCC1)N(C)S(=O)(=O)CCCn1c(C(=O)O)c(CCCOc3cccc4cc(F)ccc34)c3ccc(Cl)c-2c31 (single isomer, unassigned; enantiomer 1) [Example 66, 4-chloro-7-{3-[(6-fluoronaphthalen-1-yl)oxy]propyl}-2,3,14-trimethyl-15-[2-(morpholin-4-yl)ethyl]-13,13-dioxo-10,11,12,13,14,15-hexahydro-2H-13lambda^6-pyrazolo[3′,4′:4,5][1,2,8]thiadiazacycloundecino[6,7,8-hi]indole-8-carboxylic acid (Enantiomer 1)]",22,6000,,8.5e-06,3.3e-06,,
"CCc1c2c(nn1C)CN(CCCN1CCCC1=O)S(=O)(=O)CCCn1c(C(=O)O)c(CCCOc3cccc4ccccc34)c3cccc-2c31 (racemic) [Example 13, (rac)-12-Ethyl-11-methyl-1-(3-(naphthalen-1-yloxy)propyl)-8-(3-(2-oxopyrrolidin-1-yl)propyl)-5,6,9,11-tetrahydro-4H,8H-pyrazolo[3′,4′:4,5][1]thia[2,8]diazacycloundecino[6,7,8-hi]indole-2-carboxylic acid 7,7-dioxide]",6.3,,16000,,,1.7e-05,8.2e-06
"Cc1c2c(nn1C)CN(C1CC1)S(=O)(=O)CCCn1c(C(=O)O)c(CCCOc3cccc4cc(F)ccc34)c3ccc(Cl)c-2c31 (single isomer, unassigned; enantiomer 1) [Example 42, (−)-4-chloro-14-cyclopropyl-7-{3-[(6-fluoro-1-naphthyl)oxy]propyl}-2,3-dimethyl-11,12,14,15-tetrahydro-2H,10H-pyrazolo[3′,4′:4,5][1,2,8]thiadiazacycloundecino[6,7,8-hi]indole-8-carboxylic acid 13,13-dioxide N-diethylamine salt (Enantiomer 1)]",0.34,290,,3.5e-07,3e-07,,
"CCc1c2c(nn1C)CN(CCN1CCCCC1)S(=O)(=O)CCCn1c(C(=O)O)c(CCCOc3cccc4ccccc34)c3cccc-2c31 (racemic) [Example 14, (rac)-12-Ethyl-11-methyl-1-(3-(naphthalen-1-yloxy)propyl)-8-(2-(piperidin-1-yl)ethyl)-4,5,6,8,9,11-hexahydropyrazolo[3′,4′:4,5][1,2,8]thiadiazacycloundecino[6,7,8-hi]indole-2-carboxylic acid 7,7-dioxide 2,2,2-trifluoroacetic acid salt]",9.8,,9200,,,8.5e-06,5.2e-06
"Cc1c2c(nn1C)CN(C1CC1)S(=O)(=O)CCCn1c(C(=O)O)c(CCCOc3cccc4cc(F)ccc34)c3ccc(Cl)c-2c31 (single isomer, unassigned; enantiomer 2) [Example 43, (+)-4-chloro-14-cyclopropyl-7-{3-[(6-fluoro-1-naphthyl)oxy]propyl}-2,3-dimethyl-11,12,14,15-tetrahydro-2H,10H-pyrazolo[3′,4′:4,5][1,2,8]thiadiazacycloundecino[6,7,8-hi]indole-8-carboxylic acid 13,13-dioxide N-diethylamine salt (Enantiomer 2)]",6.2,9400,,1.3e-05,9.6e-06,,

# Second part, led by results:
IC50 (MCL-1) [nM],EC50 (SUDHL10 [1]; 3 hours) [nM],"EC50 (SUDHL10 [1]; Homo sapiens, SU-DHL10, 3 h) [nM]",Structure (SMILES),IC50 (SUDHL10 [2]) [M],IC50 (SUDHL5) [M],"IC50 (SUDHL10 [2]; Homo sapiens, SU-DHL10, 5 h) [M]","IC50 (SUDHL5; Homo sapiens, SU-DHL-5, 5 h) [M]"
1.7,770,,"CCc1c2c(nn1C)CN(C1CC1)S(=O)(=O)CCCn1c(C(=O)O)c(CCCOc3cccc4cc(F)ccc34)c3ccc(Cl)c-2c31 (racemic) [Example 53, (rac)-4-chloro-14-cyclopropyl-3-ethyl-7-{3-[(6-fluoro-1-naphthyl)oxy]propyl}-2-methyl-11,12,14,15-tetrahydro-2H,10H-pyrazolo[3′,4′:4,5][1,2,8]thiadiazacycloundecino[6,7,8-hi]indole-8-carboxylic acid 13,13-dioxide]",9e-07,8.1e-07,,
0.89,730,,"Cc1c2c(nn1C)CN(C)S(=O)(=O)CCCn1c(C(=O)O)c(CCCOc3cccc4cc(F)ccc34)c3ccc(F)c-2c31 (single isomer, unassigned; enantiomer 2) [Example 39, (+)-4-fluoro-7-{3-[(6-fluoronaphthalen-1-yl)oxy]propyl}-2,3,14-trimethyl-13,13-dioxo-10,11,12,13,14,15-hexahydro-2H-13lambda^6-pyrazolo[3′,4′:4,5][1,2,8]thiadiazacycloundecino-[6,7,8-hi]indole-8-carboxylic acid (Enantiomer 2)]",6.7e-07,4.5e-07,,
0.94,24,,"CCc1c2c(nn1C)C(CCC1CCOCC1)N(C)S(=O)(=O)CCCn1c(C(=O)O)c(CCCOc3cccc4cc(F)ccc34)c3ccc(Cl)c-2c31 (single isomer, unassigned; enantiomer 1) [Example 61, (+)-4-chloro-3-ethyl-7-{3-[(6-fluoronaphthalen-1-yl)oxy]propyl}-2,14-dimethyl-15-[2-(oxan-4-yl)ethyl]-13,13-dioxo-10,11,12,13,14,15-hexahydro-2H-13lambda^6-pyrazolo[3′,4′:4,5][1,2,8]thiadiazacycloundecino[6,7,8-hi]indole-8-carboxylic acid (Enantiomer 1)]",4.9e-08,2.8e-08,,
0.8,,320,"Cc1c2c(nn1C)C(N1CCOCC1)CCN(C)S(=O)(=O)CCCn1c(C(=O)O)c(CCCOc3cccc4cc(F)ccc34)c3ccc(Cl)c-2c31 (racemic) [Example 47, (rac)-15-chloro-1-(3-((6-fluoronaphthalen-1-yl)oxy)propyl)-8,13,14-trimethyl-11-(rac)-morpholino-5,6,9,10,11,13-hexahydro-4H,8H-pyrazolo[3′,4′:6,7][1]thia[2,10]diazacyclotridecino[8,9,10-hi]indole-2-carboxylic acid 7,7-dioxide (Mixture of Stereoisomers)]",,,3.4e-07,3.6e-07
1.2,1600,,"Cc1c2c(nn1C)CN(C)S(=O)(=O)CCCn1c(C(=O)O)c(CCCOc3cccc4ccccc34)c3ccc(Cl)c-2c31 (racemic) [Example 4, (rac)-4-Chloro-2,3,14-trimethyl-7-{3-[(naphthalen-1-yl)oxy]propyl}-13,13-dioxo-10,11,12,13,14,15-hexahydro-2H-13λ^6-pyrazolo[3′,4′:4,5][1,2,8]thiadiazacycloundecino-[6,7,8-hi]indole-8-carboxylic acid]",1.2e-06,8.1e-07,,
3.1,,4500,"Cc1c2c(nn1C)CN(C)S(=O)(=O)CCCn1c(C(=O)O)c(CCCOc3cccc4c3CCCC4)c3ccc(F)c-2c31 (racemic) [Example 29, (rac)-13-Fluoro-8,11,12-trimethyl-1-(3-((5,6,7,8-tetrahydronaphthalen-1-yl)oxy)propyl)-5,6,9,11-tetrahydro-4H,8H-pyrazolo[3′,4′:4,5][1]thia[2,8]diazacycloundecino[6,7,8-hi]indole-2-carboxylic acid 7,7-dioxide]",,,3.8e-06,1.8e-06
1.7,,1400,"CCc1c2c(nn1C)CN(C)S(=O)(=O)CCCn1c(C(=O)O)c(CCCOc3cccc4c3CCC4)c3ccc(Cl)c-2c31 [Example 21, (rac)-13-Chloro-1-(3-((2,3-dihydro-1H-inden-4-yl)oxy)propyl)-12-ethyl-8,11-dimethyl-5,6,9,11-tetrahydro-4H,8H-pyrazolo[3′,4′:4,5][1]thia[2,8]diazacycloundecino[6,7,8-hi]indole-2-carboxylic acid 7,7-dioxide]",,,1.8e-06,1e-06
2.1,,160,"CCc1c2c(nn1C)CN(CC)S(=O)(=O)CCCn1c(C(=O)O)c(CCCOc3cccc4cc(F)ccc34)c3ccc(Cl)c-2c31 (racemic) [Example 56, (rac)-4-chloro-3,14-diethyl-7-{3-[(6-fluoro-1-naphthyl)oxy]propyl}-2-methyl-11,12,14,15-tetrahydro-2H,10H-pyrazolo[3′,4′:4,5][1,2,8]thiadiazacycloundecino[6,7,8-hi]indole-8-carboxylic acid 13,13-dioxide]",,,2.5e-07,2.8e-07
